Data: patent US4780420A (Yale University, priority 1985, dated 1988)
Where two headings read alike, the source gives them in different places.

Columns and labels:
[1] = test system: estrogen receptor; conditions: Hansen et al., Jogoda et al.; cited from earlier work
[2] = in vivo; cited from earlier work
[3] = biological target: T1, progesterone receptor (Oryctolagus cuniculus, UniProt P06186); experiment: Competition of a series of steroids with [^3 H]R5020 and [^125 I]EVNT (specificity); assay type: binding, rabbit; conditions: for competing for sites with either ligand (in words): [^3 H]R5020 and [^125 I]EVNT; for activity at 0.003 µM: competitor 3 nM; for activity at 0.1 µM: competitor 100 nM
T1 construct: On the fifth day the uterus was excised, weighed and homogenized; from tissue
T1 sequence (P06186 1-930): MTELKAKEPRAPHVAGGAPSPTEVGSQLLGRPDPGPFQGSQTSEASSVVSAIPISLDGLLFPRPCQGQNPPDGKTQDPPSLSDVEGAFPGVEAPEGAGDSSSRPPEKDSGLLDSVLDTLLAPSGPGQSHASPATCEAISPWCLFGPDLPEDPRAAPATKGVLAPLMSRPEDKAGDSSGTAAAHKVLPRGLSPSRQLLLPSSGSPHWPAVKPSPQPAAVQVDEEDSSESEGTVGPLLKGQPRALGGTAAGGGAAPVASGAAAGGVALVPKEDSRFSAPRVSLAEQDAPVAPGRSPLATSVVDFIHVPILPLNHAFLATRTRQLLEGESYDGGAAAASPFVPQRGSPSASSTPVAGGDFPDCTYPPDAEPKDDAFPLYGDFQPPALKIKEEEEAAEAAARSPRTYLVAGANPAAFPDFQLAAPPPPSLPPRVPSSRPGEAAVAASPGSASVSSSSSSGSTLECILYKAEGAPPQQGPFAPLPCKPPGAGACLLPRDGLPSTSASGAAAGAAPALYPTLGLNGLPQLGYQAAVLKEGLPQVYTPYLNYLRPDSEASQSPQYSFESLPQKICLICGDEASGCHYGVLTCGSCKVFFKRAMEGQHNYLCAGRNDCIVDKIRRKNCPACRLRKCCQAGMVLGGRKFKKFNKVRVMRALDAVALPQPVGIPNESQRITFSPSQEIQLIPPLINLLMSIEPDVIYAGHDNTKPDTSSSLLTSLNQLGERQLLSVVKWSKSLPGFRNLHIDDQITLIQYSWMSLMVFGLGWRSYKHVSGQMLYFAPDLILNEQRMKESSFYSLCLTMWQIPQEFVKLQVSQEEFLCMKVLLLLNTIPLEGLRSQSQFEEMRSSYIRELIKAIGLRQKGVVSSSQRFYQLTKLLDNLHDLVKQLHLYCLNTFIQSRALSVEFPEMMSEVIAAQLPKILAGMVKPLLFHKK
Experimental: To be sure that [^125 I]EVNT and [^3 H]R5020 bound with similar specificities, experiments were performed in which a series of steroids competed with the two differently labelled ligands.
Bo is dpm specifically bound when
B is dpm bound in the presence of […]

[4] = biological target: T1, progesterone receptor; experiment: Progesterone receptor assay: competition with [^3 H]R5020 binding; design: species or system rabbit
Experimental: On the fifth day the uterus was excised, weighed and homogenized at 0° C. in 1.5 volumes of iced buffer containing: 1 mM dithiothreitol, 0.15 mM Na2 EDTA, 30% glycerol, 20 mM sodium molybdate, 10 mM Tris/HCl, pH 7.4 (4° C.). Homogenization was accomplished with three 10 second bursts of Polytron homogenizer. The homogenate was centrifuged at 3,000×g for 10 min. and the resulting supernatant was centrifuged at 100,000×g for 1 hour. The final supertant (cytosol) was diluted with homogenization buffer to afford 20-40% binding of a trace of [^3 H]R5020 (90 Ci/mMol), 10,000 dpm, and 50 μl of the appropriate radioinert compound. Non-specific binding was evaluated in tubes containing 2 μM R5020. After incubating at 4° C. overnight, free and bound steroids were separated by the addition of 100 μl of a stirred suspension of charcoal (5 mg/ml) in 10 mM Tris-HCl, pH 7.4 (4° C.), 0.15 mM Na2 EDTA. After mixing and standing on ice for 10 min., the tubes were centrifuged at 1500×g for 10 mins. and the "bound" radioactivity, in a 0.15 ml aliquot of the supernatant, was measured in a liquid scintillation counter.
In FIG. 1, Bo is the specifically bound [^3 H]R5020 alone and b is the specifically bound [^3 H]R5020 in the presence of the designated concentration of competitor. […] In Table 1 below, the values in parenthesis are the number of complete experiments which were conducted; the binding constants are means±SEM.

[5] = biological target: T1, progesterone receptor; experiment: Saturation and Scatchard analysis of the progesterone receptor with [^125 I]EVNT and [^3 H]R5020; assay type: binding, rabbit; conditions: for slope and intercept of the Scatchard plots, i.e. -Ka and the binding capacity (in words): FIG. 3, R5020 vs EVNT
[6] = Storage stability by thin layer chromatography; assay type: physicochemical; conditions: 4° C., 10% ethanol in benzene
Experimental: The radioactive product, [^125 I]EVNT, was stored at 4° C. in the alcoholic benzene solution.

[7] = read-out: B/Bo × 10^2, radioligand [^3 H]R5020 (0.67 nM)
[8] = read-out: B/Bo × 10^2, radioligand [^125 I]EVNT (0.18 nM)
[9] = radioligand [^3 H]R5020 (0.67 nM), read-out: B/Bo × 10^2
[10] = radioligand [^125 I]EVNT (0.18 nM), read-out: B/Bo × 10^2
[11] = estrogen stimulated rabbit uterine cytosol, five experiments

SMILES: C[C@]12CC[C@@H]3c4ccc(O)cc4CC[C@H]3[C@@H]1CC[C@@]2(O)/C=C/I [E-17α-[2-iodovinyl]analogs of estradiol]
- binding to the estrogen receptor (in words) [1]: bind to the estrogen receptor
- concentration in estrogen target tissues (in words) [2]: concentrate in estrogen target tissues

SMILES: C[C@]12CC[C@H]3[C@@H](CCC4=CC(=O)CC[C@@]43C)[C@@H]1CC[C@@H]2O [Testosterone]
- competing for sites with either ligand (in words) [3]: ineffective in competing for sites with either ligand
- activity at 0.003 µM [3, 7]: 100%
- activity at 0.1 µM [3, 7]: 105%
- activity at 0.003 µM [3, 8]: 101%
- activity at 0.1 µM [3, 8]: 98%

SMILES: CCC(=O)[C@@]1(C)CC[C@H]2[C@@H]3CCC4=CC(=O)CCC4=C3CC[C@@]21C [R5020, 17α,21-dimethyl-19-nor-4,9-pregnadiene-3,20-dione]
- competing for sites with either ligand (in words) [3]: substantial competition
- activity at 0.003 µM [3, 9]: 34%
- activity at 0.1 µM [3, 9]: 0%
- activity at 0.003 µM [3, 10]: 74%
- activity at 0.1 µM [3, 10]: 0%
- Kd ([4]; R5020, footnote *Kd, rabbit uterine cytosol, mean±SEM (5 experiments)): 1.05 ± 0.19 nM
- slope and intercept of the Scatchard plots, i.e. -Ka and the binding capacity (in words) [5]: almost the same

SMILES: C[C@@H]1C[C@H]2[C@@H]3CCC4=CC(=O)C=C[C@]4(C)[C@@]3(F)[C@@H](O)C[C@]2(C)[C@@]1(O)C(=O)CO [Dexamethasone]
- competing for sites with either ligand (in words) [3]: ineffective in competing for sites with either ligand
- activity at 0.003 µM [3, 9]: 103%
- activity at 0.1 µM [3, 9]: 101%
- activity at 0.003 µM [3, 10]: 96%
- activity at 0.1 µM [3, 10]: 100%

SMILES: CCC(=O)[C@@]1(C)CC[C@H]2[C@@H]3CCC4=CC(=O)CCC4=C3CC[C@@]21C [[^3 H]R5020, [^3 H]17α,21-dimethyl-19-nor-4,9-pregnadiene-3,20-dione]
- binding capacity [5, 11]: 666 ± 198 pM
- Kd ([5]; estrogen stimulated rabbit uterine cytosol, five experiments, ± SEM, read-out: Association constant Ka (converted)): 0.8 nM

SMILES: C[C@]12CC[C@H]3[C@@H](CCC4=CC(=O)CC[C@@H]43)[C@@H]1CC[C@@]2(O)/C=C\I [ZVNT, Z-17α-(2-iodovinyl)-4-estrene-17β-ol-3-one]
- Ki [4]: 1.81 nM
- binding to the progesterone receptor (in words) ([4]; listed as Z 17α-(2-iodovinyl) analog of 19-nortestosterone): bind the progesterone receptor with high affinity
- binding to the progesterone receptor (in words) ([4]; listed as Z isomer): somewhat greater affinity for the progesterone receptor

SMILES: C[C@]12CCC(=O)C=C1CC[C@@H]1[C@@H]2[C@@H](O)C[C@@]2(C)[C@H]1CC[C@]2(O)C(=O)CO [Cortisol]
- competing for sites with either ligand (in words) [3]: ineffective in competing for sites with either ligand
- activity at 0.003 µM [3, 9]: 98%
- activity at 0.1 µM [3, 9]: 106%
- activity at 0.003 µM [3, 10]: 100%
- activity at 0.1 µM [3, 10]: 102%

SMILES: CC(=O)[C@H]1CC[C@H]2[C@@H]3CCC4=CC(=O)CC[C@]4(C)[C@H]3CC[C@]12C [Progesterone]
- competing for sites with either ligand (in words) [3]: substantial competition
- activity at 0.003 µM [3, 9]: 94%
- activity at 0.1 µM [3, 9]: 37%
- activity at 0.003 µM [3, 10]: 91%
- activity at 0.1 µM [3, 10]: 22%

SMILES: C[C@]12CCC(=O)C[C@@H]1CC[C@@H]1[C@@H]2CC[C@]2(C)[C@@H](O)CC[C@@H]12 [5α-DHT, 5α-dihydrotestosterone]
- competing for sites with either ligand (in words) [3]: ineffective in competing for sites with either ligand
- activity at 0.003 µM [3, 7]: 101%
- activity at 0.1 µM [3, 7]: 95%
- activity at 0.003 µM [3, 8]: 100%
- activity at 0.1 µM [3, 8]: 91%

SMILES: C[C@]12CC[C@H]3[C@@H](CCC4=CC(=O)CC[C@@H]43)[C@@H]1CC[C@@]2(O)/C=C/[125I] [[^125 I]EVNT]
- stable for a period of at least [6]: 2-3 months
- Kd [5]: 1.05 nM
- binding capacity [5, 11]: 921 pM

SMILES: C[C@]12CC[C@H]3[C@@H](CCC4=CC(=O)CC[C@@H]43)[C@@H]1CC[C@@]2(O)/C=C/I [EVNT, E-17α-(2-iodovinyl)-4-estrene-17β-ol-3-one]
- competing for sites with either ligand (in words) [3]: substantial competition
- activity at 0.003 µM [3, 7]: 42%
- activity at 0.1 µM [3, 7]: 0%
- activity at 0.003 µM [3, 8]: 74%
- activity at 0.1 µM [3, 8]: 0%
- Ki [4]: 4.26 ± 0.94 nM
- binding to the progesterone receptor (in words) [4]: bind the progesterone receptor with high affinity
- slope and intercept of the Scatchard plots, i.e. -Ka and the binding capacity (in words) [5]: almost the same
- level of non-specific binding (in words) ([5]; FIGS. 2A and 2B): satisfactory and almost identical to that seen with R5020

SMILES: C[C@]12CC[C@H]3[C@@H](CCC4=CC(=O)CC[C@@H]43)[C@@H]1C[C@@H](I)[C@@H]2O [INT, 16α-Iodo-4-estrene-17β-ol-3-one]
- Ki [4]: 39.8 nM
- binding to the progesterone receptor (in words) [4]: bind the progesterone receptor with high affinity
